Experimental data taken from patent US12427192B2, “Water soluble adjuvant and composition containing same” (Sumitomo Pharma Co., Ltd., priority 2019, dated 2025).

Legend:
[1] = test system: HLA-A*02:01/HLA-DRB1*01:01 transgenic mouse; test: Test 19: in vivo adjuvant activity (CTL and helper T-cell induction), cocktail vaccine n, IFNγ ELISPOT; conditions: added to cocktail vaccine n, 0.04 nmol or 0.4 nmol per body, twice
Experimental: Evaluation of In Vivo Adjuvant Activity in HLA-A*02:01/HLA-DRB1*01:01 Transgenic Mouse
The in vivo adjuvant activity of the compound of Example 1 was evaluated in the following procedure. To a cocktail vaccine comprising Peptide SEQ ID No. 1 prepared in Reference example 1 and Peptide SEQ ID No. 17 prepared in Reference example 20 with a preliminarily-emulsified composition (hereinafter, referred to as “cocktail vaccine n”) was added the compound prepared in Example 1 to prepare each vaccine. The vaccine was administered to a HLA-A*02:01/HLA-DRB1*01:01 transgenic mouse (C57BL/6CrHLA-A2.1DR1), and the adjuvant activity of each vaccine was evaluated by the method of testing antigen-specific CTL and antigen-specific helper T-cell induction. Peptide SEQ ID No. 17 is a helper peptide derived from WT1 protein.
Specifically, Peptide SEQ ID No. 1 and Peptide SEQ ID No. 17 were dissolved in DMSO, and then diluted with water for injection to concentrations of Peptide SEQ ID No. 1 of 2 mg/mL and Peptide SEQ ID No. 17 of 4 mg/mL. The prepared peptide dilution was mixed with an equal volume of the preliminary emulsified composition prepared like Test 4 to give an emulsified product, cocktail vaccine n. […] Then, after removal of the supernatant from the wells, stained spots on the ELISPOT plate were counted.

[2] = test system: HLA-A*02:01 transgenic mouse; test: Test 6: in vivo adjuvant activity, vaccine c (Peptide SEQ ID No. 6), IFNγ ELISPOT; conditions: added to vaccine c; 0.4 nmol per body, twice; FIG. 3
Experimental: Test 6 Evaluation of In Vivo Adjuvant Activity in HLA-A*02:01 Transgenic Mouse
The in vivo adjuvant activity of the compound of Example 1 was evaluated in the following procedure. To a vaccine prepared by mixing Peptide SEQ ID No. 6 prepared in Reference example 6 with Montanide ISA 51 VG (hereinafter, referred to as “vaccine c”) was added the compound prepared in Example 1 to prepare a vaccine. The vaccine was administered to a HLA-A*02:01 transgenic mouse, and the adjuvant activity of the vaccine was evaluated by the method of testing antigen-specific CTL induction. The GLYDGMEHL in Peptide SEQ ID No. 6 corresponds to an antigen peptide derived from an HLA-A*02:01-restricted MAGE-A10 protein.
The character for inducing CTLs specific to the antigen peptide (SEQ ID No. 6) by vaccine c was evaluated by measuring whether IFNγ can be produced upon stimulation of splenocytes from the mouse with the peptide. In addition, the character for exerting in vivo adjuvant activity by the compound in Example 1 was evaluated by comparing the number of CTLs induced by vaccine c and the number of CTLs induced by the vaccine prepared by adding the compound prepared in Example 1 to vaccine c, and checking presence or absence of the increase on the number.
Specifically, Peptide of SEQ ID No. 6 was dissolved in DMSO, and then diluted with water for injection to concentrations of 0.1 mg/mL. […]

CCCCCNc1nc(N)nc(C)c1Cc1ccc(CN(C)CCOCCOCCOCCOCCO)cc1OC [Example 1, 1-(4-{[2-amino-4-methyl-6-(pentylamino)pyrimidin-5-yl]methyl}-3-methoxyphenyl)-2-methyl-5,8,11,14-tetraoxa-2-azahexadecan-16-ol·trifluoroacetate]
more: CTL counts responsive to Peptide SEQ ID No. 1 compared with adding no compound ([1]; FIG. 23) | helper T-cell counts responsive to Peptide SEQ ID No. 17 compared with adding no compound ([1]; FIG. 24) | CTL counts responsive to Peptide SEQ ID No. 6 compared with adding no compound [2]
